In brackets after ≈: the same amount, converted by molar mass. Read-outs that look alike come from different tables or passages of the source. Blank lines part the entries; values can stand above or below the compound they belong to.
Columns and labels:
Format in all cases: physicochemical
[1] = Evaluation of other salt forms as active pharmaceutical ingredient; details: reasons including instability, hygroscopicity and deliquescence even at moderate humidity
Description: The advantageous nature of the physicochemical properties of the di-hydrochloride salt of MN-029 seems to be borne out, not just in comparison with the mono-hydrochloride salt but also with three other salts that were prepared to determine each salt's potential to be an active pharmaceutical ingredient. These other salt forms were the mesylate, malonate and sulfate salts of denibulin. Each was deemed unsuitable for use in pharmaceutical formulations because of one or more reasons, including instability, hygroscopicity and deliquescence even at moderate humidity.

[2] = Solubility as a function of pH in buffers without and with 15% HPBCD; details: for solubility at 5 days: thermodynamic from solid, read-out: MN-029 Solubility
Description: Buffers were prepared to cover a pH range of 2 to 7. Approximately 5 to 10 milligrams of drug was weighed into an HPLC vial to which 1.00 mL of the appropriate buffer was added. The solutions were vortexed briefly and were then shaken for five days on an orbital shaker. The prolonged shaking was carried out because slow equilibration had been observed during the initial formulation studies with different salt forms of MN-029.
Buffers with 15% HPBCD were prepared from the previous buffers. One and a half grams of HPBCD was weighed into each of several 10 mL volumetric flasks. HPBCD was dissolved in and diluted to volume with the appropriate buffer. 15 to 20 milligrams of MN-029 di-hydrochloride was weighed out into an tared HPLC vial. To the di-hydrochloride salt was added 1.00 mL of each buffer and the solution was vortexed briefly to dissolve the salt. The solutions were placed on an orbital shaker for five days. Solubility results are shown in Table 10, and the pH solubility profile for the drug in the absence of HPBCD is shown in FIG. 8.

[3] = pKa, predicted (ACD) versus measured (Sirius GlpKa)
Excerpt: MN-029 has a primary, secondary and tertiary amino group. The pKa's of these amino groups, therefore, should play a role in aqueous solubility, stability and pharmacokinetics. Accordingly, the present inventor compared the predicted pKa's of the alanyl and ring nitrogen atoms to their measured pKa values and unexpectedly found a significant difference between the measured and predicted pKa values for the benzimidazole nitrogen atoms. Thus, for the acidic >N—H group of imidazole, there is approximately a 6-fold difference between the predicted and measured pKa values as shown in Scheme 3. For the more basic ring nitrogen (—N═), however, the difference between observe red and predicted pKa values is 30-fold. That is, the measured value of basicity for the unprotonated ring nitrogen is much lower than the predicted value.
Predicted pKa values were calculated using ACD pKa prediction software v. 9. Actual pKa values were collected on a Sirius GlpKa instrument with a D-PAS attachment. Measurements were made at 25° C. in aqueous solution by UV and in methanol water mixtures by potentiometry. The ionic-strength of the titration media was adjusted with 0.15 M aqueous KCl. The values found in methanol water mixtures were corrected to 0% co-solvent via a Yashuda-Shedlovsky extrapolation. The data were refined using Refinement Pro software v. 1.0. No difference in pKa between the tautomers of MN-029 di-hydrochloride were detected experimentally or theoretically.

[4] = Log P, Log Pion, Log D by potentiometric titration (Sirius GlpKa, octanol:water); details: octanol:ionic-strength adjusted water
Excerpt: Most drugs have an ideal log P value and any deviation from this idealized value results in reduced absorption, slow transport of drug to the site of action and consequently, a decrease in biological activity. Table 8, illustrates the predicted and measured values for partition coefficients of MN-029 di-hydrochloride. The data was collected by potentiometric titration using a Sirius GlpKa instrument using three ratios of octanol:ionic-strength adjusted water to generate Log P, Log Pion and Log D values and the raw data was analyzed using Refinement Pro Software V.1.0. The predicted value of Log P was obtained using ACD V. software and Syracuse KOWWIN V.1.67 softwares.

[5] = Gravimetric Vapor Sorption (GVS) hygroscopicity; details: for Weight change: GVS
Excerpt: Moreover, neither the mono-hydrochloride salt or the di-hydrochloride salt of MN-029 show any significant change in phase as measured by XRPD analysis of samples subjected to GVS analysis (see FIG. 6).

[6] = Aqueous solubility, 24 hours equilibration in water at 25° C., HPLC, pH and XRPD of residue; details: for XRPD of solid residue: residue after 24 hours equilibration in water at 25° C.
Description: Briefly, quantitative high performance liquid chromatography (HPLC) was used to determine the aqueous solubility. X-ray powder diffraction spectrometry was also used to characterize the thermodynamic solubility of the mono-hydrochloride and di-hydrochloride salts of MN-029. After a 24 hours equilibration of each salt form in water at 25° C., the residual solid material was separated from the aqueous solution and the pH of the aqueous sample was measured. The XRPD spectrum of the solid residue obtained from the MN-029 di-hydrochloride vial indicated the solid material to be the mono-hydrochloride salt of MN-029. […] Table 4 illustrates the data from aqueous solubility studies of the mono-hydrochloride and di-hydrochloride salts of MN-029.
The suspension was equilibrated at 25° C. for 24 hours then pH was measured. The suspension was filtered and the filtrate was diluted by a factor of 101. Quantization by HPLC with a reference to a standard solution. Different volumes of the standard, diluted, and undiluted solution were injected and solubility was calculated by integration of the peak found at the same time as the principle peak in the standard solution.

[7] = water, 25° C., equilibration for 24 hours

suitability for use in pharmaceutical formulations [1]: unsuitable
Compound: malonate

suitability for use in pharmaceutical formulations [1]: unsuitable
Compound: O=S(=O)(O)O [sulfate]

MN-029 Solubility ([2]; Without HPBCD, buffer pH 2.0, final pH 2.10, five days shaking): 6.16 mg/mL
solubility at 5 days ([2]; aqueous buffer with 15% HPBCD, pH 2, aqueous with cosolvent or surfactant or cyclodextrin, With 15% HPBCD, buffer pH 2.0, final pH 2.03): > 20900 µg/mL
solubility at 5 days ([2]; aqueous buffer with 15% HPBCD, pH 3, aqueous with cosolvent or surfactant or cyclodextrin, With 15% HPBCD, buffer pH 3.0, final pH 3.11): > 24400 µg/mL
solubility at 5 days ([2]; aqueous buffer with 15% HPBCD, pH 4, aqueous with cosolvent or surfactant or cyclodextrin, With 15% HPBCD, buffer pH 4.0, final pH 3.98): > 21500 µg/mL
solubility at 5 days ([2]; aqueous buffer with 15% HPBCD, pH 5, aqueous with cosolvent or surfactant or cyclodextrin, With 15% HPBCD, buffer pH 5.0, final pH 5.24): > 23000 µg/mL
solubility at 5 days ([2]; aqueous buffer with 15% HPBCD, pH 6, aqueous with cosolvent or surfactant or cyclodextrin, With 15% HPBCD, buffer pH 6.0, final pH 6.27): > 24300 µg/mL
solubility at 5 days ([2]; aqueous buffer with 15% HPBCD, pH 7, aqueous with cosolvent or surfactant or cyclodextrin, With 15% HPBCD, buffer pH 7.0, final pH 6.90): > 22700 µg/mL
solubility at 5 days ([2]; aqueous buffer, pH 3, aqueous buffer, Without HPBCD, buffer pH 3.0, final pH 3.35): 290 µg/mL (≈ 752 µM)
solubility at 5 days ([2]; aqueous buffer, pH 4, aqueous buffer, Without HPBCD, buffer pH 4.0, final pH 3.92): 560 µg/mL (≈ 1450 µM)
solubility at 5 days ([2]; aqueous buffer, pH 5, aqueous buffer, Without HPBCD, buffer pH 5.0, final pH 4.93): 150 µg/mL (≈ 389 µM)
solubility at 5 days ([2]; aqueous buffer, pH 6, aqueous buffer, Without HPBCD, buffer pH 6.0, final pH 6.24): 130 µg/mL (≈ 337 µM)
solubility at 5 days ([2]; aqueous buffer, pH 7, aqueous buffer, Without HPBCD, buffer pH 7.0, final pH 6.96): 26 µg/mL (≈ 67.5 µM)
difference between predicted and measured pKa values ([3]; acidic >N—H group of imidazole): ~6 fold
difference between predicted and measured pKa values ([3]; alanyl amino group): no significant difference
difference between observed and predicted pKa values ([3]; more basic ring nitrogen (—N═)): 30 fold
Compound: COC(=O)Nc1nc2ccc(Sc3ccc(NC(=O)[C@H](C)N)cc3)cc2[nH]1 [MN-029, carbamic acid N-[6-[[4-[[(2S)-2-amino-1-oxopropyl]amino]phenyl]thio]-1H-benzimidazol-2-yl]-methyl ester]

Measured LogP [4]: 2.64
Measured LogPion(cation) [4]: 0.93
Measured LogD7.4 ([4]; pH 7.4): 2.10
Weight change ([5]; 0% RH to 40% RH): +1.04 % w/w
Weight change ([5]; 40% RH to 90% RH, listed as A063866): Reversible uptake of +2.12% w/w
Weight change ([5]; 40% RH to 90% RH, listed as MN029*HCl): +2.12 % w/w
Weight change ([5]; 90% RH to 0% RH): −3.39 % w/w
XRPD of residue after GVS ([5]; sample subjected to GVS): No significant difference
XRPD of solid residue ([6]; listed as A063866): No significant difference
XRPD of solid residue ([6]; listed as MN-029*HCl): No significant
Concentration of filtrate [6, 7]: 0.63 mg/ml of free base
pH of saturated solution [6, 7]: 2.37
Compound: COC(=O)Nc1nc2cc(Sc3ccc(NC(=O)[C@H](C)N)cc3)ccc2[nH]1.Cl [MN-029 mono-hydrochloride, reference compound]
